Assay results published in patent US9862712B2, “Benzimidazole based EGFR inhibitors” (COUNCIL OF SCIENTIFIC & INDUSTRIAL RESEARCH, priority 2014, dated 2018).
“Also recorded” adds a separate entry of the source.

Columns and labels:
[1] = system: U87MG Cell line (Glioblastoma cell line); test: MTT cell proliferation assay, U87MG Cell line; assay type: cell-based; conditions: for viability at 0.01 µM / viability at 0.1 µM / viability at 2.5 µM / viability at 5 µM / viability at 10 µM: Homo sapiens, U-87 MG, U87MG, 72 h, MTT
Method: (§1) 1. Protocol Followed for Anti Cancer Activity and Results, Cell Proliferation Assays: Cell lines used herein were purchased from NCCS (National Center for Cell Sciences) Pune, India. Invitro Activity was performed in NCL (National Chemical Laboratory) Pune. Each cell line was plated in 96-well microtiter plates (10,000 cells per well), and serial dilutions of indicated compounds were added. At the end of the incubation period (72 h at 37° C.), cell viability was determined by a tetrazolium dye, MTT (3-(4,5-dimethylthiazol-2-yl)-2,5-diphenyl tetrazolium bromide) (Promega, USA). The formazan crystals were dissolved in DMSO, and the absorbance at 600 nm was recorded using an ELISA plate reader. IC50 values were calculated using nonlinear regression and defined as the concentration needed for a 50% reduction in absorbance of treated versus untreated control cells.
By using the above procedure, the compounds of the invention were tested on U87MG Cell line (glioblastoma cell line) and the results obtained are presented below in table 8, Refer FIG. 5.

MDA-MB-436 Cell line = test: MTT cell proliferation assay, MDA-MB-436 Cell line; assay type: cell-based; conditions: for viability at 0.01 µM / viability at 0.1 µM / viability at 2.5 µM / viability at 5 µM / viability at 10 µM: Homo sapiens, 72 h, MTT; for viability at 0.01 µM: MDA-MB-436, 0.01 μM; for viability at 0.1 µM: MDA-MB-436, 0.1 μM; for viability at 2.5 µM: MDA-MB-436, 2.5 μM; for viability at 5 µM: MDA-MB-436, 5 μM; for viability at 10 µM: MDA-MB-436, 10 μM
Method: as §1
By using the above procedure, the compounds of the invention were tested on MDA-MB-436 Cell line and the results obtained are presented below in table 7, Refer FIG. 4.

HOP-62 Cell line = test: MTT cell proliferation assay, HOP-62 Cell line; assay type: cell-based; conditions: for viability at 0.01 µM / viability at 0.1 µM / viability at 2.5 µM / viability at 5 µM / viability at 10 µM: Homo sapiens, 72 h, MTT; for viability at 0.01 µM: HOP-62, 0.01 μM; for viability at 0.1 µM: HOP-62, 0.1 μM; for viability at 2.5 µM: HOP-62, 2.5 μM; for viability at 5 µM: HOP-62, 5 μM; for viability at 10 µM: HOP-62, 10 μM
Method: as §1
By using the above procedure, the compounds of the invention were tested on HOP-62 Cell line and the results obtained are presented below in table 6, Refer FIG. 3.

Log P (Table 3) = assay type: physicochemical; conditions: no method given
MCF-7 Cell line = test: MTT cell proliferation assay, MCF-7 Cell line; assay type: cell-based; conditions: for viability at 0.01 µM / viability at 0.1 µM / viability at 2.5 µM / viability at 5 µM / viability at 10 µM: Homo sapiens, MCF7, 72 h, MTT; for viability at 0.01 µM: MCF-7, 0.01 μM; for viability at 0.1 µM: MCF-7, 0.1 μM; for viability at 2.5 µM: MCF-7, 2.5 μM; for viability at 5 µM: MCF-7, 5 μM; for viability at 10 µM: MCF-7, 10 μM
Method: as §1
Table 4 indicates anticancer activity against A549 Cell line. The Gefitinib was used as standard and % cell Viable was measured compared to control. The procedure used was MTT assay as mentioned. […] By using the above procedure, the compounds of the invention were tested on MCF-7 Cell line and the results obtained are presented below in table 5, Refer FIG. 2.

[2] = system: A549 Cell line (Lung Cancer Cell line); test: MTT cell proliferation assay, A549 Cell line; assay type: cell-based, human; conditions: for viability at 0.01 µM / viability at 0.1 µM / viability at 2.5 µM / viability at 5 µM / viability at 10 µM: Homo sapiens, 72 h, MTT; for viability at 0.01 µM: A549, 0.01 μM; for viability at 0.1 µM: A549, 0.1 μM; for viability at 2.5 µM: A549, 2.5 μM; for viability at 5 µM: A549, 5 μM; for viability at 10 µM: A549, 10 μM
Method: as §1
By using the above procedure, the compounds of the invention were tested on A549 Cell line and the results obtained are presented below in table 4, Refer FIG. 1.

[3] = compared among 15 molecules and with Gefitinib, listed as M4

SMILES	viability at 0.01 µM [1] [%]	viability at 0.1 µM [1] [%]	viability at 2.5 µM [1] [%]	viability at 5 µM [1] [%]	viability at 10 µM [1] [%]	viability at 0.01 µM (MDA-MB-436 Cell line) [%]	viability at 0.1 µM (MDA-MB-436 Cell line) [%]	viability at 2.5 µM (MDA-MB-436 Cell line) [%]	viability at 5 µM (MDA-MB-436 Cell line) [%]	viability at 10 µM (MDA-MB-436 Cell line) [%]	viability at 0.01 µM (HOP-62 Cell line) [%]	viability at 0.1 µM (HOP-62 Cell line) [%]	viability at 2.5 µM (HOP-62 Cell line) [%]	viability at 5 µM (HOP-62 Cell line) [%]	viability at 10 µM (HOP-62 Cell line) [%]	logP (Log P (Table 3))	viability at 0.01 µM (MCF-7 Cell line) [%]	viability at 0.1 µM (MCF-7 Cell line) [%]	viability at 2.5 µM (MCF-7 Cell line) [%]	viability at 5 µM (MCF-7 Cell line) [%]	further results
Cc1cc(C)c(Nc2nc(N)c(-c3nc4ccccc4[nH]3)s2)c(C)c1 [Molecule S4-M6, 5-(1H-benzo[d]imidazol-2-yl)-N^2-mesitylthiazole-2,4-diamine]	91.3	82.1	70	59	42.4	116	112	110	105	101	103	100	100	100	91	2.11	112	100	101	100	viability at 10 µM (MCF-7 Cell line): 100%; melting point: 218 to 220 °C; viability at 0.01 µM [2]: 92.3%; viability at 0.1 µM [2]: 85.1%; viability at 2.5 µM [2]: 72%; viability at 5 µM [2]: 61%; viability at 10 µM [2]: 50%
Nc1nc(Nc2ccccc2[N+](=O)[O-])sc1-c1nc2ccccc2[nH]1 [Molecule S4-M4, 5-(1H-benzo[d]imidazol-2-yl)-N^2-(2-nitrophenyl)thiazole-2,4-diamine]	45.7	33.2	22.8	18.9	8.86	69.7	58.2	42.8	28.9	21.9	43.1	36.1	25.7	18.9	12.4	3.33	72.7	61.2	53.8	42.9	anticancer activity against U87-MG Cell line (in words) ([1]; compared among 15 molecules): most active; anticancer activity against MDA-MB-436 Cell line (in words) (MDA-MB-436 Cell line; [3]): most active; also recorded: Invitro activity comparable to standard Gefitinib; anticancer activity against HOP-62 Cell line (in words) (HOP-62 Cell line; [3]): most active; also recorded: Invitro activity comparable to standard Gefitinib; viability at 10 µM (MCF-7 Cell line): 31.9%; anticancer activity against MCF-7 Cell line (in words) (MCF-7 Cell line; compared among 15 molecules, listed as M4): most active; also recorded: showing Invitro activity; melting point: 220 to 222 °C; viability at 0.01 µM [2]: 57.1%; viability at 0.1 µM [2]: 49.1%; viability at 2.5 µM [2]: 34.7%; viability at 5 µM [2]: 25.9%; viability at 10 µM [2]: 18.4%; anticancer activity against A549 Cell line (in words) ([2]; compared among 15 molecules and with Gefitinib): most active
Nc1nc(Nc2ccc(Cl)cc2)sc1-c1nc2ccccc2[nH]1 [Molecule S4-M5, 5-(1H-benzo[d]imidazol-2-yl)-N^2-(4-chlorophenyl)thiazole-2,4-diamine]	92.8	80.6	72.9	60.9	49.9	99.8	99.6	99.9	99.9	98.9	101	92.6	88.9	82.9	75.9	3.99	89.8	83.6	79.9	72.9	viability at 10 µM (MCF-7 Cell line): 65.9%; melting point: 210 to 212 °C; viability at 0.01 µM [2]: 95.8%; viability at 0.1 µM [2]: 85.6%; viability at 2.5 µM [2]: 73.9%; viability at 5 µM [2]: 65.9%; viability at 10 µM [2]: 54.9%
